Where two headings read alike, the source gives them in different places. Some results are limits rather than exact numbers.

In data set [1] the test system is non-small cell lung cancer cell line NCI-H460. Description: SRB proliferation assay, NCI-H460. It counts as cell-based. The conditions noted are these: Homo sapiens, 72 hours. The method, then: (§1) Protocol: the antineoplasmic activities in vitro of the compounds were assayed by a Sulforhodamine B (SRB) protocol. Tumor cells were cultivated at 37 under 5% CO2 in a RPMI 1640 medium or a DMEM medium (Gibco) containing 10% fetal bovine serum. Tumor cells were inoculated on a 96-well plate with a concentration of 0.4-1.0×10^4 cells per well according to the cell types. 24 hours later, the target compounds diluted 10 times were added, each compound having at least 5 concentrations. After treated by the compounds for 72 hours, the culture media were discarded, and the cells were fixed by 10% cold trichloroacetic acid, and then stained by Sulforhodamine B (SRB) solution. The uncombined SRB was washed off, and the SRB combined with protein was dissolved with Tris. OD values were recorded at 515 nm on an ELISA Reader, and the cell growth inhibition rate was calculated according to following equation: Inhibition rate=(ODcontrol−ODexperimental)/ODcontrol×100%
(§2) IC50 (50% inhibitory concentration) was calculated by using Logit method based on the inhibition rates at various concentration, and the results are shown in tables 1 and 2. […]
A general note: In SRB staining, fixed cells bind dye roughly in proportion to their protein.

The subject of data set [2] is ovarian cancer cell line SK-OV-3. Description: SRB proliferation assay, SK-OV-3. It counts as cell-based. The conditions noted are these: Homo sapiens, 72 hours. On the procedure: as §1, §2
In data set [3] the test system is human breast carcinoma cell line SK-BR-3. The data set is described as follows: SRB proliferation assay, SK-BR-3. The conditions noted are these: SK-BR-3, breast carcinoma, 72 hours. It counts as cell-based. The method, then:
as §1, §2

For data set [4], the system named is human umbilical vein endothelial cells (HUVEC). Description: SRB proliferation assay, HUVEC. It counts as cell-based. The conditions noted are these: human umbilical vein endothelial cells (normal cells), 72 hours. On the procedure:
as §1, §2

The test system of data set [5] is human colon cancer cell line SW-620. The data set is described as follows: SRB proliferation assay, SW-620. It counts as cell-based. The conditions noted are these: SW-620, colon carcinoma, 72 hours. The method, then: as §1, §2
The test system of data set [6] is human breast cancer cell line MDA-MB-231. The data set is described as follows: SRB proliferation assay, MDA-MB-231. It counts as cell-based. The conditions noted are these: MDA-MB-231, breast carcinoma, 72 hours. On the procedure:
as §1, §2

Data set [7] relates to human hepatoma cell line Bel-7402. The data set is described as follows: SRB proliferation assay, Bel-7402. It counts as cell-based. The conditions noted are these: Homo sapiens, Bel-7402, 72 h. The method, then:
as §1
IC50 (50% inhibitory concentration) was calculated by using Logit method based on the inhibition rates at various concentration, and the results are shown in tables 1 and 2.
The following cell lines were used: human hepatocarcinoma cell line […]; ovarian cancer cell line SK-OV-3; human breast cancer cell line MDA-MB-231; human renal carcinoma cell line A498; colon adenocarcinoma cell line HT-29; non-small cell lung cancer cell line NCI-H460; lung adenocarcinoma cell line A549; human colon cancer cell line SW-620; human hepatoma cell line Bel-7402; human breast carcinoma cell line SK-BR-3; and human umbilical vein endothelial cells (HUVEC).

Data set [8] concerns human hepatocarcinoma cell line SIMM-7721. The data set is described as follows: SRB proliferation assay, SIMM-7721. It counts as cell-based. The conditions noted are these: SIMM-7721, liver cancer, 72 hours. On the procedure: as §1, §2
The test system of data set [9] is human renal carcinoma cell line A498. The data set is described as follows: SRB proliferation assay, A498. It counts as cell-based. The conditions noted are these: 72 hours. The method, then: as §1, §2
In data set [10] the test system is colon adenocarcinoma cell line HT-29. The data set is described as follows: SRB proliferation assay, HT-29. It counts as cell-based. The conditions noted are these: Homo sapiens, HT-29, colon carcinoma, 72 hours. On the procedure: as §1, §2
Data set [11] relates to liver cancer of animals. Description: Curative effect against liver cancer of animals in vivo.
Data set [12] relates to human liver cancer cells SMMC-7721 transplanted tumor. Description: SMMC-7721 transplanted tumor on nude mice. The conditions noted are these: intragastrically once a day for 10 days; subcutaneous tumor on nude mice. It counts as in vivo. On the procedure:
Experimental procedure: BALB/cA nude mice, 6-7 weeks old, ♀, were purchased from Shanghai SLAC Laboratory Animal Co. LTD. Certificate No.: SCXK (Shanghai) 2007-0005. Habitat: SPF level. The compounds were diluted with 0.5% CMC containing 0.1% Tween-80 to a desired concentration. Human liver cancer cells SMMC-7721 were inoculated on nude mice subcutaneously. After the tumor grew up to 100-200 mm^3, animals were grouped randomly (d0). Mice were consecutively administered with compounds intragastrically once a day for 10 days. The tumor volume was measured 2-3 times each week and the weights of mice were recorded. The tumor volume (V) was calculated according to the following equation: V=½×a×b^2, wherein, a and b are length and width, respectively.

In data set [13] the test system is human liver cancer cells Bel-7402 transplanted tumor. It counts as in vivo. The conditions noted are these: for Quantity of Animals Whose Tumors Vanished / Inhibition Rate (%) / Tumor Volume (mm^3): 100 mg/kg, PO, QDx11; for Quantity of Animals Whose Tumors Vanished: 5 animals per group; for Inhibition Rate (%) / Tumor Volume (mm^3): Bel-7402 on nude mice; for tumors vanished (animals/group): at the 11th day; for tumors vanished (animals/group) / toxicity / survivability of mice: intragastrically once a day for 11 days; for recrudescence of tumors: at the end of the experiment (17th day); for toxicity / survivability of mice: nude mice. An excerpt:
Name and lot number: YHHU-744, a white powder, lot No.: No. c001471-106; YHHU-755, a white powder, lot No.: No. c001471-102; YHHU-756, a white powder, lot No.: No. c00147-106; YHHU-759, a white powder, lot No.: No. c001471-102; YHHU-776, a white powder, lot No.: No. c001471-107. Sorafenib was used as a positive control.
Formulation: YHHU-744, YHHU-755, YHHU-756, YHHU-759, YHHU-776 and the positive control were each diluted with 0.1% Tween-80 and distilled water to a desired concentration.
BALB/cA nude mice, 6-7 weeks old, ♀, were purchased from Shanghai SLAC Laboratory Animal Co. LTD. Certificate No.: SCXK (Shanghai) 2007-0005. Habitat: SPF level.
Human liver cancer cells Bel-7402 were inoculated on nude mice subcutaneously. After the tumor grew up to 300-450 mm^3, animals were grouped randomly (d0). The tumor volume was measured 2-3 times each week and the weights of mice were recorded. The tumor volume was calculated according to as the following equation. V=½×a×b^2 wherein, a and b are length and width, respectively. […]

The mark [14] stands for this setting: BEL-7402 cultivated in vitro, given as bounds, read-out: The Inhibition Activities for Human Liver Cancer Cells BEL-7402 (IC50).

One may read the IC50 as the midpoint of a concentration-inhibition curve. With `O=c1ccc(-c2ccc(N3CCCC3)c(C(F)(F)F)c2)n[nH]1` [YHHU-646], the concentration for half-maximal inhibition (IC50) in data set [1] is 24.1 µM; in data set [2], 0.003 µM; in data set [3] it was 7.5 µM; in [4] it was 0.03 µM; in [5], 5.8 µM; in data set [6], > 20 µM. Also, the IC50 was < 0.01 µM in [7] (setting [14]); 0.0007 µM in data set [7] (Bel-7402, liver cancer, Table 1, read-out: IC50); < 0.1 µM in data set [8]; 4.12 µM in data set [9]; 6.3 µM in data set [10]. The “curative effect against liver cancer of animals in vivo” value in data set [11] was “significant curative effect”.

For `O=c1ccc(-c2ccc(N3CCOCC3)c(C(F)(F)F)c2)n[nH]1` [YHHU-759], in data set [12], the “growth of SMMC-7721 transplanted tumor” value is recorded as “significantly inhibited the growth”. The 50% inhibitory concentration (IC50) in data set [7] (setting [14]) was < 0.01 µM. Besides, in data set [13], the “Quantity of Animals Whose Tumors Vanished” value is listed as 5, the “Inhibition Rate (%)” value came out at 100%, the “Tumor Volume (mm^3)” value is 367.9 mm^3 and the “tumors vanished (animals/group)” value is 5/5. For the same compound, in [13], the recrudescence of tumors entry was “no recrudescence was observed” and the “toxicity / survivability of mice” value is “no significant toxicity was observed”.

For `O=c1ccc(-c2ccc(N3CCCCC3)c(C(F)(F)F)c2)n[nH]1` [YHHU-755], the IC50 in data set [7] (setting [14]) is < 0.01 µM. In data set [13], the “Quantity of Animals Whose Tumors Vanished” value worked out at 5, the “Inhibition Rate (%)” value is 100%, the “Tumor Volume (mm^3)” value worked out at 350.4 mm^3 and the “tumors vanished (animals/group)” value is 5/5. Moreover, in data set [13], the recrudescence of tumors result is “no recrudescence was observed” and the “toxicity / survivability of mice” value is on record as “no significant toxicity was observed”.
